Test system: Mycosphaerella fijiensis
Assay: Second field trials: in vitro fungicidal activity, length of germinated ascospores on water-agar
Type: cell-based
Settings: for % Inhibition: ascospores incubated 48 hours at 26° C. in darkness
Procedure: Additional field trials were conducted to evaluate the in vitro fungicidal activity of 14 composition embodiments in the treatment of Mycosphaerella fijiensis.
Culture media comprising 2% water-agar (Difco® Bacto® Agar) and 0.001, 0.01, 0.1, 1, 10, 100, and 1,000 mg/L of the active substance were each prepared in a petri dish for each composition. A separate culture media without any active substance was used as a control. For comparative fungicides F-11-01 to F-11-12 listed in Table 1 below, the active substance was the same as the composition as a whole.
Ascospores of Mycosphaerella fijiensis obtained from a banana plantation that had not been treated with any fungicides were discharged into each petri dish. After discharging the ascospores of Mycosphaerella fijiensis, each sample was incubated for 48 hours at 26° C. in complete darkness. After 48 hours of incubation, the length of 100 germinated ascospores at each concentration was measured.
After collecting the data, the average length of the germinated ascospores was calculated for each concentration. The average inhibition percentage was calculated for each sample fungicide at each concentration using the following formula:
where: • Lcontrol=average length of germinated ascospores of control sample • Lsample=average length of germinated ascospores of sample fungicide.
The average inhibition percentage was used to calculate EC50 for each sample fungicide. EC50 is the half maximal effective concentration, which refers to the concentration of sample fungicide that induces a response halfway between the baseline and maximum after a specified exposure time.

Polysorbate 80 [Fungicide F-11-09]
% Inhibition (0.001 mg/L): 37.98%
% Inhibition (0.01 mg/L): 42.6%
% Inhibition (0.1 mg/L): 11.91%
% Inhibition (1 mg/L): 31.87%
% Inhibition (10 mg/L): 52.04%
% Inhibition (100 mg/L): 46.24%
Natural Log (natural log belonging to the EC50 column): 10.45

— patent publication US10966430B2, “Natural fungicide composition” (GRIFFITH FOODS INTERNATIONAL INC., priority 2013, dated 2021)
